This is an account of results in PubChem BioAssay AID743178 (NMMLSC, 2013).

Calls of active or inactive are those of the source.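 The calls were made as follows: active = percent MAC1 positive of at least 15% at the highest dose, plus EC50 under 10 µM; inactive = the rest.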

One assay has as its system U937 myeloid differentiation, MAC1 flow cytometry, 4 d. In words: MAC1 induction in U937 cells – cell-based, MAC1 flow cytometry, set 1, SAR follow-up (AID 743178).
Settings: not given
For `O=C(CCNC(=O)c1cccc(Cl)c1)N[C@@H]1CCCc2ccccc21`, the half-maximal effective concentration (EC50) is 7.94 µM. Regarding `Cc1ccc(C(=O)NCCC(=O)N[C@@H]2CCCc3ccccc32)cc1`, the EC50 is 4.21 µM. On to `O=C(CCNC(=O)c1ccc(Cl)cc1)NC1CCCc2ccccc21` (centres undefined), for which the EC50 is 4.57 µM.

`O=C(CCNC(=O)c1ccc(Cl)cc1)N[C@@H]1CCCc2ccccc21`: the EC50 was 2.78 µM.

Regarding `O=C(CCNC(=O)c1ccc(OC(F)(F)F)cc1)N[C@@H]1CCCc2ccccc21`, the half-maximal effective concentration (EC50) is 2.07 µM. On the same count and under the same terms, in the case of `O=C(CCNC(=O)c1ccc2c(c1)OC(F)(F)O2)N[C@@H]1CCCc2ccccc21` it was 4.41 µM; in that of `O=C(CCNC(=O)c1ccc(C(F)(F)F)cc1)N[C@@H]1CCCc2ccccc21`, 2.26 µM; in that of `O=C(CCNC(=O)c1ccc(Cl)c(Cl)c1)N[C@@H]1CCCc2ccccc21`, 3.4 µM.

System in another assay: not listed separately
The assay is described as above. The following applies: U937 myeloid differentiation, MAC1 flow cytometry, 4 d; at 10 µM (top of the series).
With `O=C(NC1CCc2ccccc21)C1CCCN(C(=O)c2ccc(Cl)cc2)C1` (centres undefined), the percent MAC1 positive was 1.16% (inactive). Still for that read-out and setting: in the case of `COc1ccccc1C(C)NC(=O)CCNC(=O)c1ccc(Cl)cc1` (centres undefined) it was 0.779% (inactive). Consider `O=C(CCNC(=O)c1ccc(Cl)cc1)NC1CCCCC1`, for which the percent MAC1 positive was 1.63% (inactive). The same measure, in the same setting: the value for `O=C(CNC(=O)c1ccc(Cl)cc1)N[C@@H]1CCCc2ccccc21` was 1.65% (inactive); that for `O=C(CNC(=O)c1ccc(OC(F)(F)F)cc1)N[C@@H]1CCCc2ccccc21` was 1.56% (inactive).

Regarding `C[C@@H](NC(=O)CCNC(=O)c1ccc(Cl)cc1)c1ccccc1`, the percent MAC1 positive is 1.51% (inactive).

In the case of `CC(NC(=O)CCNC(=O)c1ccc(Cl)cc1)c1ccc(F)cc1` (centres undefined), the percent MAC1 positive was 3.42% (inactive).

As for `CC(C)(C)OC(=O)NCCC(=O)N[C@H]1CCCc2ccccc21`, the percent MAC1 positive was 1.16% (inactive). Same read-out and setting: in the case of `O=C(CCNC(=O)c1ccc(Cl)cc1)N[C@H]1CCCc2ccccc21` it was 2.12% (inactive); in that of `O=C(CCCNC(=O)c1ccc(Cl)cc1)N[C@@H]1CCCc2ccccc21`, 1.04% (inactive); in that of `O=C(CCCNC(=O)c1ccc(C(F)(F)F)cc1)N[C@@H]1CCCc2ccccc21`, 2.46% (inactive).

As to `O=C(NC1CCOc2ccccc21)C1CCCN(C(=O)c2ccc(Cl)cc2)C1` (centres undefined), the percent MAC1 positive is 0.843% (inactive).

Consider `COc1ccc(C(=O)NCCC(=O)N[C@@H]2CCCc3ccccc32)cc1`, for which the percent MAC1 positive is 28.1% (inactive).

Turning to `O=C(CCNC(=O)c1ccccc1)N[C@@H]1CCCc2ccccc21`, the percent MAC1 positive was 1.8% (inactive). Consider `CC(NC(=O)C1CCCN(C(=O)c2ccc(Cl)cc2)C1)c1ccccc1` (centres undefined), for which the percent MAC1 positive is 1.23% (inactive). Same read-out and setting: in the case of `CC(NC(=O)CCNC(=O)c1ccc(Cl)cc1)c1ccc2c(c1)OCO2` (centres undefined) it was 1.17% (inactive). Still for that read-out and setting: in the case of `O=C(O)c1cccnc1Nc1ccc(Cl)cc1` it was 85% (inactive); in that of `O=C(Cc1ccc(Cl)cc1)NCCC(=O)N[C@@H]1CCCc2ccccc21`, 13.3% (inactive).

As to `CC(C)(C)OC(=O)NCCC(=O)N[C@@H]1CCCc2ccccc21`, the percent MAC1 positive is 1.18% (inactive).

For `O=C(CCNC(=O)c1ccc(Cl)cc1)N[C@@H]1CCc2ccccc21`, the percent MAC1 positive is 6% (inactive). Still for that read-out and setting: in the case of `O=C(CNC(=O)c1ccc(C(F)(F)F)cc1)N[C@@H]1CCCc2ccccc21` it was 1.08% (inactive); in that of `Cc1ccc(C)c(OCCn2cc(C(=O)O)c3ccccc32)c1`, 0% (inactive); in that of `NCCC(=O)N[C@@H]1CCCc2ccccc21`, 1.1% (inactive). The same measure, in the same setting: the value for `O=C(O)c1ccccc1OCc1ccccc1Br` was 0% (inactive); that for `Cc1cccc(C(=O)NCCC(=O)NC2CCCc3ccccc32)c1` (centres undefined) was 1.09% (inactive); that for `CC(c1ccccc1)N(C)C(=O)CCNC(=O)c1ccc(Cl)cc1` (centres undefined) was 0.788% (inactive). Still for that read-out and setting: in the case of `O=C(CCCNC(=O)c1ccc(Cl)c(Cl)c1)N[C@@H]1CCCc2ccccc21` it was 1.27% (inactive); in that of `CC(=O)NCCC(=O)N[C@@H]1CCCc2ccccc21`, 0.776% (inactive). For `O=C(CNC(=O)c1ccc(Cl)c(Cl)c1)N[C@@H]1CCCc2ccccc21`, the percent MAC1 positive was 1.68% (inactive). Turning to `N#Cc1ccc(C(=O)NCCC(=O)N[C@@H]2CCCc3ccccc32)cc1`, the percent MAC1 positive is 0.711% (inactive).

`O=C(CCCNC(=O)c1ccc(OC(F)(F)F)cc1)N[C@@H]1CCCc2ccccc21`: the percent MAC1 positive is 0.912% (inactive).
